Laboratory results published in PubChem BioAssay AID2060331 (Molecular Pharmacology Branch, DTP, NCI, 2025).

Tested on: Hs578T multi-cell spheroids, viability
Experiment: Anticancer human tumor Hs578T cell line growth inhibition [IpAb];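 further: drug exposure lasted 7 days before readout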
Conditions: for IC50: curve of first compound; for viability, T/C: stronger effect = lower value
Source text: Combinatorial screen of targeted agents with ipatasertib and abemaciclib in multi-cell type tumor spheroids
A high-throughput screen of multi-cell type tumor spheroids was designed to identify active combinations of targeted small molecules and ipatasertib or abemaciclib. Complex spheroids include a stromal component modeled by human endothelial cells (HUVEC) and fibroblasts modeled by human mesenchymal stem cells (MSCs). The concentration ranges selected for each drug and investigational agent were based upon clinically achievable concentrations if the clinical Cmax of the agent was known.
Compounds. The drugs and investigational agents: ipatasertib (NSC767898), abemaciclib(NSC768073), selumetinib (NSC741078), trametinib (758246), adavosertib (NSC754352), everolimus (NSC733504), sapanisertib (NSC764658), vemurafenib (NSC761431), venetoclax (NSC766270), copanlisib (NSC809693), apelisib (NSC765974), palbociblib (NSC758247), vemurafenib (NSC761431), dabrafenib (NSC764134), ravoxertinib (NSC781343), BMS-387032 (NSC767048), sotorasib (NSC818433), talazoparib (NSC767125) and afursertib (NSC778305), were obtained from the National Cancer Institute (NCI) Developmental Therapeutics Program Chemical Repository. The FDA-approved anticancer drug set is available from the NCI Developmental Therapeutics Program. […] The stock solutions were prepared in dimethyl sulfoxide (DMSO, Sigma-Aldrich, St. Louis, MO, cat. D2650) at 800-fold the tested concentration and stored at -70 degrees C prior to their use. All drugs and investigational agents were tested over a range starting from a high concentration at or near the clinical Cmax and decreasing in half-log increments. If the clinical Cmax for an agent had not been determined, the highest concentration tested was 10 microM.
NCI60 Cell Culture. NCI60 cell lines were obtained from the NCI Developmental Therapeutics Program Tumor Repository. For each lot of cells, the Repository performed Applied Biosystems AmpFLSTR Identifiler testing with PCR amplification to confirm consistency with the published Identifier STR profile for each cell line. Cells were kept in continuous culture for no more than 20 passages. The optimal seeding densities for each of the cell lines at each time point assessed were determined prior to performing the concentration response studies. Briefly, the NCI60 human tumor lines were grown as monolayers in RPMI 1640 medium supplemented with 10% FBS and 2 mmol/L L-glutamine.
An additional 9 lines were from the NCI60 cell line panel including MDA-MB-231 breast carcinoma, MDA-MB-468 breast carcinoma, MCF7 breast carcinoma, Hs578T breast carcinoma, MALME-3M melanoma, SK-MEL-2 melanoma, SK-OV-3 ovarian carcinoma, DU-145 prostate carcinoma, PC-3 prostate carcinoma, all cell lines along with major genetic alterations are listed on Table 2. Pooled donor human umbilical vein endothelial cells (HUVEC, Lonza, cat. CC-2519) and human mesenchymal stem cells (hMSC, Lonza, cat. PT-2501) were purchased from Lonza (Walkersville, MD).
PDMR cell lines were grown in complete medium (DC medium): Dulbecco's modified Eagle's medium (DMEM)/F12 supplemented with 5% fetal bovine serum (FBS), 2 mM L-glutamine, 100 U/mL penicillin and 100 µg/ml streptomycin, 0.4 µg/ml hydrocortisone, 10 ng/ml epidermal growth factor (EGF) recombinant human protein, 24 µg/mL adenine, and 0.1 mg/mL primocin. During culture from frozen stock vials, PDMR cells were cultured in the same medium containing 10 µM Y-27632 (see Table 3). The PDCs were cultured in complete DMEM/F12 media without 10 microM Y-27632 dihydrochloride for at least two passages prior to the screen. The pooled donor HUVEC and hMSC were cultured in endothelial cell growth medium 2 (PromoCell, Heidelberg, Germany, cat. C-22011) and mesenchymal stem cell growth medium 2 (PromoCell, cat. C-28009), respectively. For all experiments, HUVEC and hMSC were used at passages </=5.
[…]

CCCS(=O)(=O)Nc1ccc(F)c(C(=O)c2c[nH]c3ncc(-c4ccc(Cl)cc4)cc23)c1F + CCN1CCN(Cc2ccc(Nc3ncc(F)c(-c4cc(F)c5nc(C)n(C(C)C)c5c4)n3)nc2)CC1 gave an IC50 (second compound 0.01 µM) of 4.38 µM, an IC50 (second compound 0.0316 µM) of 4.19 µM and an IC50 (second compound 0.1 µM) of 4.32 µM. For the same compound, the IC50 (second compound 0.316 µM) was 4.67 µM, the IC50 (second compound 1 µM) was 5.52 µM and the viability, T/C (second compound 0.01 µM, first compound 0.0316 µM) was 96.9%. For the same compound, the viability, T/C (second compound 0.01 µM, first compound 0.1 µM) was 103%, the viability, T/C (second compound 0.01 µM, first compound 0.316 µM) was 99.1% and the viability, T/C (second compound 0.01 µM, first compound 1 µM) was 97.4%. For the same compound, the viability, T/C (second compound 0.01 µM, first compound 3.16 µM) was 67%, the viability, T/C (second compound 0.01 µM, first compound 10 µM) was 8.02% and the viability, T/C (second compound 0.0316 µM, first compound 0.0316 µM) was 95.3%. It also gave a viability, T/C (second compound 0.0316 µM, first compound 0.1 µM) of 100%, a viability, T/C (second compound 0.0316 µM, first compound 0.316 µM) of 98.6% and a viability, T/C (second compound 0.0316 µM, first compound 1 µM) of 92.4%. For the same compound, the viability, T/C (second compound 0.0316 µM, first compound 3.16 µM) was 64.4%, the viability, T/C (second compound 0.0316 µM, first compound 10 µM) was 5.43% and the viability, T/C (second compound 0.1 µM, first compound 0.0316 µM) was 90.8%. The viability, T/C (second compound 0.1 µM, first compound 0.1 µM) was 87.6%, the viability, T/C (second compound 0.1 µM, first compound 0.316 µM) was 87.1% and the viability, T/C (second compound 0.1 µM, first compound 1 µM) was 82.5%. It also gave a viability, T/C (second compound 0.1 µM, first compound 3.16 µM) of 66.4%, a viability, T/C (second compound 0.1 µM, first compound 10 µM) of 6.9% and a viability, T/C (second compound 0.316 µM, first compound 0.0316 µM) of 92.4%. For the same compound, the viability, T/C (second compound 0.316 µM, first compound 0.1 µM) was 89.5%, the viability, T/C (second compound 0.316 µM, first compound 0.316 µM) was 87.8% and the viability, T/C (second compound 0.316 µM, first compound 1 µM) was 79.9%. It also gave a viability, T/C (second compound 0.316 µM, first compound 3.16 µM) of 71.7%, a viability, T/C (second compound 0.316 µM, first compound 10 µM) of 11.4% and a viability, T/C (second compound 1 µM, first compound 0.0316 µM) of 106%. It also gave a viability, T/C (second compound 1 µM, first compound 0.1 µM) of 97.4%, a viability, T/C (second compound 1 µM, first compound 0.316 µM) of 102% and a viability, T/C (second compound 1 µM, first compound 1 µM) of 104%. For the same compound, the viability, T/C (second compound 1 µM, first compound 3.16 µM) was 87.1% and the viability, T/C (second compound 1 µM, first compound 10 µM) was 10.3%.

CC(=O)c1c(C)c2cnc(Nc3ccc(N4CCNCC4)cn3)nc2n(C2CCCC2)c1=O + CC(C)NCC(C(=O)N1CCN(c2ncnc3c2C(C)CC3O)CC1)c1ccc(Cl)cc1 showed an IC50 (second compound 0.1 µM) of over 0.3 µM, an IC50 (second compound 0.316 µM) of over 0.3 µM and an IC50 (second compound 1 µM) of 0.02 µM. The IC50 (second compound 3.16 µM) was 0.0111 µM, the IC50 (second compound 10 µM) was under 0.000949 µM and the viability, T/C (second compound 0.1 µM, first compound 0.000949 µM) was 96.7%. For the same compound, the viability, T/C (second compound 0.1 µM, first compound 0.003 µM) was 86.1%, the viability, T/C (second compound 0.1 µM, first compound 0.00949 µM) was 83.3% and the viability, T/C (second compound 0.1 µM, first compound 0.03 µM) was 71.4%. The viability, T/C (second compound 0.1 µM, first compound 0.0949 µM) was 64.2%, the viability, T/C (second compound 0.1 µM, first compound 0.3 µM) was 60.1% and the viability, T/C (second compound 0.316 µM, first compound 0.000949 µM) was 92.7%. The viability, T/C (second compound 0.316 µM, first compound 0.003 µM) was 79.7%, the viability, T/C (second compound 0.316 µM, first compound 0.00949 µM) was 70.3% and the viability, T/C (second compound 0.316 µM, first compound 0.03 µM) was 62.3%. The viability, T/C (second compound 0.316 µM, first compound 0.0949 µM) was 59.4%, the viability, T/C (second compound 0.316 µM, first compound 0.3 µM) was 49.5% and the viability, T/C (second compound 1 µM, first compound 0.000949 µM) was 62.7%. The viability, T/C (second compound 1 µM, first compound 0.003 µM) was 67.7%, the viability, T/C (second compound 1 µM, first compound 0.00949 µM) was 56.1% and the viability, T/C (second compound 1 µM, first compound 0.03 µM) was 48.6%. It also gave a viability, T/C (second compound 1 µM, first compound 0.0949 µM) of 43%, a viability, T/C (second compound 1 µM, first compound 0.3 µM) of 47.2% and a viability, T/C (second compound 3.16 µM, first compound 0.000949 µM) of 55.6%. The viability, T/C (second compound 3.16 µM, first compound 0.003 µM) was 58.8%, the viability, T/C (second compound 3.16 µM, first compound 0.00949 µM) was 52.8% and the viability, T/C (second compound 3.16 µM, first compound 0.03 µM) was 41.2%. The viability, T/C (second compound 3.16 µM, first compound 0.0949 µM) was 42.3%, the viability, T/C (second compound 3.16 µM, first compound 0.3 µM) was 38.8% and the viability, T/C (second compound 10 µM, first compound 0.000949 µM) was 48.7%. It also gave a viability, T/C (second compound 10 µM, first compound 0.003 µM) of 47.5%, a viability, T/C (second compound 10 µM, first compound 0.00949 µM) of 41.7% and a viability, T/C (second compound 10 µM, first compound 0.03 µM) of 35.5%. It also gave a viability, T/C (second compound 10 µM, first compound 0.0949 µM) of 35.6% and a viability, T/C (second compound 10 µM, first compound 0.3 µM) of 37.3%.
